Values of other authors, collected in PMC3736096 (Nature, 2013).

Row | Compound | blood-brain barrier penetration
1 | COc1ccc(S(=O)(=O)Nc2nc(-c3cccc([N+](=O)[O-])c3)c(CN3CCCCC3)s2)cc1OC [JM6] | do not appreciably penetrate the blood-brain barrier
2 | COc1ccc(S(=O)(=O)Nc2nc(-c3cccc([N+](=O)[O-])c3)cs2)cc1OC [Ro 61-8048, 3,4-dimethoxy-[-N-4-(nitrophenyl)thiazol-2yl]-benzenesulfonamide] | do not appreciably penetrate the blood-brain barrier
